Marks after values point to notes of the source that are not given here.
How the values were obtained:
[1] = set-up: species or system CD-1 mice; conditions: mouse, in vivo; for Blood to Brain Influx Ki: iv
[2] = set-up: species or system CD-1 mice; conditions: mouse, in vivo, iv
[3] = set-up: species or system CD-1 mice; conditions: mouse, in vivo, iv; remark: listed apart in the source
[4] = set-up: species or system CD-1 mice; conditions: mouse, in vivo, iv; remark: listed apart in the source
[5] = format: physicochemical; conditions: pH 7.5
[6] = Saturability of brain uptake; set-up: species or system CD-1 mice; conditions: mouse, in vivo, iv
[7] = set-up: species or system CD-1 mice; conditions: mouse, in vivo, iv; remark: listed apart in the source
[8] = in vivo; cited from earlier work

| Initial Volume of Distribution in Brain Vi [1] [µL/g] | Blood to Brain Influx Ki [1] | Capillary Depletion: %Parenchyma (percent of IRA reaching the brain found in parenchyma vs capillaries) [2] [%] | Half-Time Serum Clearance t1/2 [3] [min] | 125I-IRA remaining intact, Serum, 10 min [4] [%] | 125I-IRA remaining intact, Serum, 60 min [4] | 125I-IRA remaining intact, Whole Brain, 10 min [4] [%] | Degradation (loss of precipitable 125I-IRA) in serum from 10 to 60 min [4] | Degradation (loss of precipitable 125I-IRA) in whole brain from 10 to 60 min [4] | Lipid Solubility Partition Coefficient [5] | Log Partition Coefficient (Log P) [5] | Capillary Depletion: Capillary (capillary/serum ratio) [2] [µL/g] | Capillary Depletion: Parenchyma (parenchyma/serum ratio) [2] [µL/g] | Serum radioactivity, Without Unlabeled IRA [6] [cpm/μL] | Whole Brain brain/serum ratio, Without Unlabeled IRA [6] [µL/g] | Peak percent of injected 125I-IRA taken up per gram brain tissue (%Inj/g) [7] [%] | 125I-IRA remaining intact, Whole Brain, 60 min [4] | Substance | Percent of IRA reaching the brain trapped in the capillaries [2] [%] | Percentage of injected dose entering the brain (%Inj/g) [8] [%] |
| --- | --- | --- | --- | --- | --- | --- | --- | --- | --- | --- | --- | --- | --- | --- | --- | --- | --- | --- | --- |
| -0.340 ± 0.3285 | ns |  | 149.31 | 100.0 ± 0.031 | 98.91 ± 0.029^a % | 95.55 ± 1.139 | less than 2% | less than 12% | 0.0353 ± 0.0016 | −1.452 ± 0.0199 | 0.434 ± 0.056 | -0.850 ± 0.533 | 692.1 ± 55.27 | 9.637 ± 0.308 |  |  | HXEGTFTSDVSSYLEGQAAK^bEFIAWLVRGRG-OH [Semaglutide] |  |  |
| 1.057 ± 0.1876 | 0.3489 ± 0.0228 µL/g/min | 73.2 | 39.61 | 95.77 ± 0.350 | 81.20 ± 1.960^a % | 78.98 ± 3.930 |  |  | 0.0052 ± 0.0049 | −2.564 ± 0.5921 | 0.543 ± 0.178 | 1.482 ± 0.462 | 81.33 ± 6.720 | 11.41 ± 0.528 | 0.15 | 52.91 ± 5.030^a % | YXEGTFTSDYSIYLDKQAAXEFVNWLLAGGPSSGAPPPSC-NH2 [Peptide 17] |  |  |
| 0.2034 ± 0.1134 | ns |  | 32.37 | 99.85 ± 0.020 | 90.78 ± 4.440% | 107.8 ± 3.37 |  |  | 0.2493 ± 0.0239 | −0.604 ± 0.0418 | 0.764 ± 0.092 | -0.306 ± 0.219 |  | 7.18 ± 0.202 |  |  | YXEGTFTSDYSIYLDKQAAXEFVNWLLAGGPSSGAPPPSK-NH2 [Peptide 18] |  |  |

The remaining lines, values behind:

| Substance | Initial Volume of Distribution in Brain Vi [1] [µL/g] | Blood to Brain Influx Ki [1] | Capillary Depletion: %Parenchyma (percent of IRA reaching the brain found in parenchyma vs capillaries) [2] [%] | Half-Time Serum Clearance t1/2 [3] [min] | 125I-IRA remaining intact, Serum, 10 min [4] [%] | 125I-IRA remaining intact, Serum, 60 min [4] | 125I-IRA remaining intact, Whole Brain, 10 min [4] [%] | Degradation (loss of precipitable 125I-IRA) in serum from 10 to 60 min [4] | Degradation (loss of precipitable 125I-IRA) in whole brain from 10 to 60 min [4] | Lipid Solubility Partition Coefficient [5] | Log Partition Coefficient (Log P) [5] | Capillary Depletion: Capillary (capillary/serum ratio) [2] [µL/g] | Capillary Depletion: Parenchyma (parenchyma/serum ratio) [2] [µL/g] | Serum radioactivity, Without Unlabeled IRA [6] [cpm/μL] | Whole Brain brain/serum ratio, Without Unlabeled IRA [6] [µL/g] | Peak percent of injected 125I-IRA taken up per gram brain tissue (%Inj/g) [7] [%] | 125I-IRA remaining intact, Whole Brain, 60 min [4] | Percent of IRA reaching the brain trapped in the capillaries [2] [%] | Percentage of injected dose entering the brain (%Inj/g) [8] [%] |
| --- | --- | --- | --- | --- | --- | --- | --- | --- | --- | --- | --- | --- | --- | --- | --- | --- | --- | --- | --- |
| HAEGTFTSDVSSYLEGQAAK^aEFIAWLVRGRG-OH [Liraglutide] | 2.434 ± 0.5977 | ns | 28.7 | 167.22 | 101.2 ± 0.062 | 100.18 ± 0.244^a % | 100.1 ± 4.206 | less than 2% | less than 12% |  |  |  |  |  |  |  |  | 71.3 |  |
| YXEGTFTSDYSIYLDKQAAXEFVC ^*WLLAGGPSSGAPPPSK-NH2 [Peptide 20] | 0.4075 ± 0.2728 |  | 43.6 | 43 | 100.16 ± 0.120 | 93.80 ± 1.850^a % | 99.4 ± 2.070 |  |  | 0.0057 ± 0.0008 | −2.249 ± 0.0671 | 0.796 ± 0.252 | 0.615 ± 0.807 | 217.3 ± 7.176 | 9.51 ± 0.421 | 0.05 |  | 56.4 |  |
| YXEGTFTSDYSIYLDKQAAXEFVNWLLAGGPSSGAPPPSK-NH2 [DA3-CH] | 2.186 ± 0.5638 | 0.3922 ± 0.0668 µL/g/min | 86.02 | 42.57 | 93.26 ± 1.110 | 73.65 ± 3.138^a % | 71.59 ± 12.14 | 19.6% | 44.9% | 0.0048 ± 0.0015 | −2.325 ± 0.1318 | 0.637 ± 0.073 | 3.918 ± 0.993 | 65.07 ± 6.275 | 20.86 ± 1.943 | 0.08 | 26.71 ± 17.23^a % |  |  |
| YXEGTFTSDYSIYLDKQAAXEFVNWLLAGGPSSGAPPPSKKKKKK-NH2 [DA-JC4] | 2.495 ± 0.8554 | 0.6680 ± 0.1089 µL/g/min | 89.7 | 151.94 | 85.66 ± 1.866 | 63.32 ± 1.987^a % | 69.63 ± 16.36 |  |  | 0.0030 ± 0.0008 | −2.520 ± 0.1184 | 1.129 ± 0.597 | 9.855 ± 2.751 | 29.32 ± 2.014 | 15.10 ± 1.243 | 0.17 | 47.99 ± 18.71% |  |  |
| leptin: hormone crossing the BBB, literature comparison |  |  |  |  |  |  |  |  |  |  |  |  |  |  |  |  |  |  | 0.171 |
